Results from US9701664B2, “Fused 1,4-dihydrodioxin derivatives as inhibitors of heat shock transcription factor 1” (Cancer Research Technology Limited, priority 2013, dated 2017).
pIC50: −log10 of the molar value.

How the values were obtained:
[1] = system: HSP72 in SK-OV-3 cells; test: Cell-based ELISA (Cellisa) assay, SK-OV-3 cells: inhibition of 17-AAG-induced HSP72; conditions: SK-OV-3 cells (Examples 169-218)
Procedure: U2OS cells (5-8×10^4 cells/mL) or SK-OV-3 cells (5-8×10^4 cells/mL) were seeded into 96-well plates and incubated at 37° C. for 48 h. Compounds were then added at a range of concentrations and incubated for 1 h before addition of 17-AAG (250 nM). Cells were then incubated for 18 h. The medium was removed washed 2× with PBS and cells were then fixed with fixing solution (4% paraformaldehyde, 0.3% TritonX-100 in PBS) for 30 min at 4° C. The plates were then washed 2× with PBS before blocking with 5% milk for 30 min at 37° C. After washing the plates 4× with 0.1% Tween-20/deionised water, HSP72 antibody (SPA-810, Enzo Life) was added for 1.5 h at 37° C. Following 4× washes, the plates were incubated with europium-labelled anti-mouse antibody (0.6 ug/ml) in Delfia assay buffer (Perkin Elmer) for 1 h at 37° C. After washing the plates, Delfia enhancement solution was added, shaken for 10 min before reading in the Envision plate reader (Perkin-Elmer) with excitation at 340 nm and emission at 615 nm. The plates were washed again before protein determination using the bicinchoninic acid assay (BCA assay, Pierce Biotechnology). The europium counts were normalised for the amount of protein in each well. The 50% inhibitory concentration value of the compound was then calculated.

[2] = system: HSP72 in U2OS cells; test: Cell-based ELISA (Cellisa) assay, U2OS cells: inhibition of 17-AAG-induced HSP72; conditions: Homo sapiens; U2OS cells (Examples 1-168)
[3] = system: U2OS cells; test: Titre Blue cell viability assay, U2OS cells; type: cell-based; conditions: Homo sapiens, U2OS

Row | Molecule | pIC50 ([1]; Homo sapiens) | pIC50 [1] | pIC50 [2] | pIC50 [3]
1 | Cc1ccc(NC(=O)c2ccc3c(c2)OCCO3)cc1NC(=O)c1ccc2nc(CN3CCCC3C)ccc2c1 (stereo not drawn) [Example 205, N-(5-(2,3-dihydrobenzo[b][1,4]dioxine-6-carboxamido)-2-methylphenyl)-2-((2-methylpyrrolidin-1-yl)methyl)quinoline-6-carboxamide] | 7.19 | – | – | –
2 | O=C(Nc1ccc(F)c(NC(=O)c2ccc3nc(OCCN4CCCC4)ccc3c2)c1)c1ccc2c(c1)OCCO2 [Example 188, N-(5-(2,3-dihydrobenzo[b][1,4]dioxine-6-carboxamido)-2-fluorophenyl)-2-(2-(pyrrolidin-1-yl)ethoxy)quinoline-6-carboxamide] | 7.24 | – | – | –
3 | O=C(Nc1ccc(Cl)c(NC(=O)c2ccc3nc(OCCCN4CCCCC4)ccc3c2)c1)c1ccc2c(c1)OCCO2 [Example 189, N-(2-chloro-5-(2,3-dihydrobenzo[b][1,4]dioxine-6-carboxamido)phenyl)-2-(3-(piperidin-1-yl)propoxy)quinoline-6-carboxamide] | 7.57 | – | – | –
4 | 2-((4-(sec-butyl)piperazin-111)methyl)-N-(2-chloro-5-(2,3-dihydrobenzo[b][1,4]dioxine-6-carboxamido)phenyl)quinoline-6-carboxamide [Example 193] | – | 7.18 | – | –
5 | Cc1ccc(NC(=O)c2ccc3c(c2)OCCO3)cc1NC(=O)c1ccc2nc(CN3CC[C@@H](F)C3)ccc2c1 [Example 206, (R)—N-(5-(2,3-dihydrobenzo[b][1,4]dioxine-6-carboxamido)-2-methylphenyl)-2-((3-fluoropyrrolidin-1-yl)methyl)quinoline-6-carboxamide] | 7.12 | – | – | –
6 | Cc1ccc(NC(=O)c2ccc3c(c2)OCCO3)cc1NC(=O)c1ccc2nc(CN3CCN(C(C)C)CC3)ccc2c1 [Example 202, N-(5-(2,3-dihydrobenzo[b][1,4]dioxine-6-carboxamido)-2-methylphenyl)-2-((4-isopropylpiperazin-1-yl)methyl)quinoline-6-carboxamide] | 7.21 | – | – | –
7 | CC1CCCN1Cc1ccc2cc(C(=O)Nc3cc(NC(=O)c4ccc5c(c4)OCCO5)ccc3F)ccc2n1 (racemic) [Example 190, (rac)-N-(5-(2,3-dihydrobenzo[b][1,4]dioxine-6-carboxamido)-2-fluorophenyl)-2-((2-methylpyrrolidin-1-yl)methyl)quinoline-6-carboxamide] | 6.57 | – | – | –
8 | CN1CCN(Cc2ccc3cc(C(=O)Nc4cc(NC(=O)c5ccc6c(c5)OCCO6)ccc4F)ccc3n2)CC1 [Example 173, N-(5-(2,3-dihydrobenzo[b][1,4]dioxine-6-carboxamido)-2-fluorophenyl)-2-((4-methylpiperazin-1-yl)methyl)quinoline-6-carboxamide] | 7.00 | – | – | –
9 | Cc1cc(NCCN(C)C)c2cc(C(=O)Nc3cc(NC(=O)c4ccc5c(c4)OCCO5)ccc3C)ccc2n1 [Example 110, N-(5-(2,3-dihydrobenzo[b][1,4]dioxine-6-carboxamido)-2-methylphenyl)-4-(2-(dimethylamino)ethylamino)-2-methylquinoline-6-carboxamide] | – | – | 6.39 | 6.77
10 | COc1ccnc2ccc(C(=O)Nc3cc(NC(=O)c4ccc5c(c4)OCCO5)ccc3C)cc12 [Example 11, N-(5-(2,3-dihydrobenzo[b][1,4]dioxine-6-carboxamido)-2-methylphenyl)-4-methoxyquinoline-6-carboxamide] | – | – | 7.42 | 7.02
11 | Cc1ccc(NC(=O)c2ccc3c(c2)OCCO3)cc1NC(=O)c1ccc2nc(N(C)CCC(=O)O)ccc2c1 [Example 163, 3-((6-((5-(2,3-dihydrobenzo[b][1,4]dioxine-6-carboxamido)-2-methylphenyl)carbamoyl)quinolin-2-yl)(methyl)amino)propanoic acid] | – | – | 5.95 | 5.73
12 | CCC(=O)N(C)Cc1ccc2cc(C(=O)Nc3cc(NC(=O)c4ccc5c(c4)OCCO5)ccc3C)ccc2n1 [Example 78, N-(5-(2,3-dihydrobenzo[b][1,4]dioxine-6-carboxamido)-2-methylphenyl)-2-((N-methylpropionamido)methyl)quinoline-6-carboxamide] | – | – | 7.35 | 7.04
13 | Cc1ccc(NC(=O)c2ccc3c(c2)OCCO3)cc1NC(=O)c1ccc2ncncc2c1 [Example 10, N-(5-(2,3-dihydrobenzo[b][1,4]dioxine-6-carboxamido)-2-methylphenyl)quinazoline-6-carboxamide] | – | – | 7.54 | 7.82
14 | Cc1ccc(NC(=O)c2ccc3c(c2)OCCO3)cc1NC(=O)c1ccc2nc(OCCN3CCC(F)(F)CC3)ccc2c1 [Example 72, 2-(2-(4,4-difluoropiperidin-1-yl)ethoxy)-N-(5-(2,3-dihydrobenzo[b][1,4]dioxine-6-carboxamido)-2-methylphenyl)quinoline-6-carboxamide] | – | – | 6.98 | 7.22
15 | COc1ccc(C(=O)Nc2cc(NC(=O)c3ccc4c(c3)OCCO4)ccc2C)cc1C [Example 26, N-(3-(4-methoxy-3-methylbenzamido)-4-methylphenyl)-2,3-dihydrobenzo[b][1,4]dioxine-6-carboxamide] | – | – | 6.58 | 7.15
16 | Cc1ccc(NC(=O)c2ccc3c(c2)OCCO3)cc1NC(=O)c1ccc2c(c1)CCCO2 [Example 9, N-(3-(chroman-6-carboxamido)-4-methylphenyl)-2,3-dihydrobenzo[b][1,4]dioxine-6-carboxamide] | – | – | 7.66 | 7.05
17 | Cc1ccc(NC(=O)c2ccc3c(c2)OCCO3)cc1NC(=O)c1ccc2nc(CN(C)C)ccc2c1 [Example 71, N-(5-(2,3-dihydrobenzo[b][1,4]dioxine-6-carboxamido)-2-methylphenyl)-2-((dimethylamino)methyl)quinoline-6-carboxamide] | – | – | 7.09 | 6.93
18 | Cc1ccc(NC(=O)c2ccc3c(c2)OCCO3)cc1NC(=O)c1ccc2nc(CN3CCN(C)CC3)ccc2c1 [Example 70, N-(5-(2,3-dihydrobenzo[b][1,4]dioxine-6-carboxamido)-2-methylphenyl)-2-((4-methylpiperazin-1-yl)methyl)quinoline-6-carboxamide] | – | – | 7.23 | 7.04
19 | Cc1ccc(NC(=O)c2ccc3c(c2)OCCO3)cc1NC(=O)c1ccc2nccc(C#N)c2c1 [Example 24, 4-cyano-N-(5-(2,3-dihydrobenzo[b][1,4]dioxine-6-carboxamido)-2-methylphenyl)quinoline-6-carboxamide] | – | – | 6.76 | 6.77
20 | Cc1ccc(NC(=O)c2ccc3c(c2)OCCO3)cc1NC(=O)c1ccc2nccnc2c1 [Example 36, N-(5-(2,3-dihydrobenzo[b][1,4]dioxine-6-carboxamido)-2-methylphenyl)quinoxaline-6-carboxamide] | – | – | 5.94 | 6.25
21 | Cc1ccc(NC(=O)c2ccc3c(c2)OCCO3)cc1NC(=O)c1ccc2nc(OCCCNC(=O)OC(C)(C)C)ccc2c1 [Example 35, tert-butyl (3-((6-((5-(2,3-dihydrobenzo[b][1,4]dioxine-6-carboxamido)-2-methylphenyl)carbamoyl)quinolin-2-yl)oxy)propyl)carbamate] | – | – | 6.06 | 6.36
22 | Cc1ccc(NC(=O)c2ccc3c(c2)OCCO3)cc1NC(=O)c1ccc(OCc2ccccn2)cc1 [Example 19, N-(4-methyl-3-(4-(pyridin-2-ylmethoxy)benzamido)phenyl)-2,3-dihydrobenzo[b][1,4]dioxine-6-carboxamide] | – | – | 6.54 | 6.49
